{
  "source": "ChEMBL document CHEMBL6096723",
  "about": "“Discovery of novel capsaicin analogs as TRPV1 inhibitors for the treatment of idiopathic pulmonary fibrosis” (Eur J Med Chem, 2025)",
  "key": {"[1]": {"test": "VRT(0 to t) in Sprague-Dawley rat at 50 mg/kg, iv measured upto 4 hrs by UPLC-MS/MS analysis", "assay_type": "ADME, organism-based", "conditions": "in vivo"}, "[2]": {"test": "VRT(0 to infinity) in Sprague-Dawley rat at 50 mg/kg, po measured upto 4 hrs by UPLC-MS/MS analysis", "assay_type": "ADME, organism-based", "conditions": "in vivo"}, "[3]": {"test": "VRT(0 to t) in Sprague-Dawley rat at 50 mg/kg, po measured upto 4 hrs by UPLC-MS/MS analysis", "assay_type": "ADME, organism-based", "conditions": "in vivo"}, "[4]": {"tested_on": "Mus musculus", "test": "Anti-pulmonary fibrotic activity against bleomycin induced pulmonary fibrosis mouse model assessed as reduction in pulmonary fibrosis lesions at 10 to 20 mg/kg, ip administered every alternative day for 8 to 21 days after modeling", "assay_type": "functional, organism-based", "conditions": "dose 10-20 mg/kg, time 8-21 day"}, "[5]": {"tested_on": "Rattus norvegicus", "test": "Zeta in Sprague-Dawley rat at 50 mg/kg, iv measured upto 4 hrs by UPLC-MS/MS analysis", "assay_type": "ADME, organism-based", "conditions": "in vivo"}, "[6]": {"test": "Cmax in Sprague-Dawley rat at 50 mg/kg, ip measured upto 4 hrs by UPLC-MS/MS analysis", "assay_type": "ADME, organism-based", "conditions": "in vivo"}, "[7]": {"tested_on": "Rattus norvegicus", "test": "Cz in Sprague-Dawley rat at 50 mg/kg, ip measured upto 4 hrs by UPLC-MS/MS analysis", "assay_type": "ADME, organism-based", "conditions": "in vivo"}, "[8]": {"test": "AUMC(0 to infinity) in Sprague-Dawley rat at 50 mg/kg, po measured upto 4 hrs by UPLC-MS/MS analysis", "assay_type": "ADME, organism-based", "conditions": "in vivo"}, "[9]": {"biological_target": "Transient receptor potential cation channel subfamily V member 1 (Homo sapiens) (UniProt Q8NER1)", "sequence (Q8NER1 whole entry)": "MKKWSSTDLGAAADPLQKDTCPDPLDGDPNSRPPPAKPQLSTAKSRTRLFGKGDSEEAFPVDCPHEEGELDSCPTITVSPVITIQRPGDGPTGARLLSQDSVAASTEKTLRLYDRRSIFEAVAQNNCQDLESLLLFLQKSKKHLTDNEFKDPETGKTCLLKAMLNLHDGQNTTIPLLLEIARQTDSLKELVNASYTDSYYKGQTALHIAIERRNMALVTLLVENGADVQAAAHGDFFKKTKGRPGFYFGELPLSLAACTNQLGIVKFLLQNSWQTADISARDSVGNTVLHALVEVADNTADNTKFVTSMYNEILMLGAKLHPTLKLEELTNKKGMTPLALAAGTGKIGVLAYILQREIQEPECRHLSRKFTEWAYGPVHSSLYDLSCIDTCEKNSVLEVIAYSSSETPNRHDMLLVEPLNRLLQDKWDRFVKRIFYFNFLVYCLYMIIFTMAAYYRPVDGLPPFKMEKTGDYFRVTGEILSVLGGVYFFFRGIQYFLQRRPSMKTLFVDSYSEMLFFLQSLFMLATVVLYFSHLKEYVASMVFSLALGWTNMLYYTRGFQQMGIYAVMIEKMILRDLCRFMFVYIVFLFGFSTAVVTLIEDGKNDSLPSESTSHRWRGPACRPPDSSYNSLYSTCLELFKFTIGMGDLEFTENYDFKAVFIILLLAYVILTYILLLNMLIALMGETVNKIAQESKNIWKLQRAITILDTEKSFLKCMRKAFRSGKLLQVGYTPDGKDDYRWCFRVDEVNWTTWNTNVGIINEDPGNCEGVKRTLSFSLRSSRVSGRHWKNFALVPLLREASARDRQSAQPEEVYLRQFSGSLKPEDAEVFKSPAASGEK", "test": "Inhibition of TRPV1 (unknown origin) overexpressed in HEK-293T cells assessed as decrease in TGFbeta-induced alpha-SMA expression at 10 uM measured after 48 hrs incubation by Western blotting analysis", "assay_type": "cell-based"}, "[10]": {"test": "Apparent volume of distribution in Sprague-Dawley rat at 50 mg/kg, iv measured upto 4 hrs by UPLC-MS/MS analysis", "assay_type": "ADME, organism-based", "conditions": "in vivo, read-out: Vz"}, "[11]": {"test": "Clearance in Sprague-Dawley rat at 50 mg/kg, po measured upto 4 hrs by UPLC-MS/MS analysis", "assay_type": "ADME, organism-based", "conditions": "in vivo"}, "[12]": {"test": "Acute toxicity in Kunming male mouse assessed as Direct bilirubin (D-Bil) level at 180 mg/kg, ip measured after 14 days (reference value: 6.21 micromol/L)", "assay_type": "organism-based", "conditions": "in vivo, 336 h, time 14 day"}, "[13]": {"test": "Acute toxicity in Kunming female mouse assessed as Creatinine (CREA) level at 180 mg/kg, ip measured after 14 days (reference value: 15.4 micromol/L)", "assay_type": "organism-based", "conditions": "in vivo, 336 h, time 14 day"}, "[14]": {"test": "AUMC(0 to t) in Sprague-Dawley rat at 50 mg/kg, ip measured upto 4 hrs by UPLC-MS/MS analysis", "assay_type": "ADME, organism-based", "conditions": "in vivo"}, "[15]": {"test": "AUC(0 to infinity) in Sprague-Dawley rat at 50 mg/kg, po measured upto 4 hrs by UPLC-MS/MS analysis", "assay_type": "ADME, organism-based", "conditions": "in vivo"}, "[16]": {"test": "Cytotoxicity against mouse NIH3T3 cells assessed as survival rate at 10 uM measured after 24 hrs by CCK-8 assay relative to control", "assay_type": "toxicity, cell-based", "conditions": "read-out: Survival"}, "[17]": {"test": "Half life in Sprague-Dawley rat at 50 mg/kg, ip measured upto 4 hrs by UPLC-MS/MS analysis", "assay_type": "ADME, organism-based", "conditions": "in vivo"}, "[18]": {"test": "MRT(0 to t) in Sprague-Dawley rat at 50 mg/kg, ip measured upto 4 hrs by UPLC-MS/MS analysis", "assay_type": "ADME, organism-based", "conditions": "in vivo"}, "[19]": {"tested_on": "NIH3T3", "test": "Antifibrotic activity in mouse NIH3T3 cells assessed as decrease in TGFbeta-induced alpha-SMA expression measured after 48 hrs incubation by Western blotting analysis", "assay_type": "functional, cell-based", "conditions": "dose 1-10 µM"}, "[20]": {"tested_on": "Mus musculus", "test": "Anti-pulmonary fibrotic activity against bleomycin-induced pulmonary fibrosis mouse model assessed as inhibition of alpha-SMA expression in lung tissue at 10 to 20 mg/kg, ip administered every alternative day for 8 to 21 days after modeling by immunohistochemical staining based assay", "assay_type": "functional, organism-based", "conditions": "dose 10-20 mg/kg, time 8-21 day"}, "[21]": {"test": "AUMC(0 to infinity) in Sprague-Dawley rat at 50 mg/kg, iv measured upto 4 hrs by UPLC-MS/MS analysis", "assay_type": "ADME, organism-based", "conditions": "in vivo"}, "[22]": {"tested_on": "Mus musculus", "test": "Anti-pulmonary fibrotic activity against bleomycin-induced pulmonary fibrosis mouse model assessed as inhibition of collagen I expression in lung tissue at 10 to 20 mg/kg, ip administered every alternative day for 8 to 21 days after modeling by immunohistochemical staining based assay", "assay_type": "functional, organism-based", "conditions": "dose 10-20 mg/kg, time 8-21 day"}, "[23]": {"test": "Acute toxicity in Kunming male mouse assessed as Lactate dehydrogenase (LDH) level at 180 mg/kg, ip measured after 14 days (reference value: 1776.1 U/L)", "assay_type": "organism-based", "conditions": "in vivo, 336 h, time 14 day"}, "[24]": {"tested_on": "Mus musculus", "test": "Anti-pulmonary fibrotic activity against bleomycin-induced pulmonary fibrosis mouse model assessed as reduction in BLM-induced […] expression in lung tissue at 10 to 20 mg/kg, ip administered every alternative day for 8 to 21 days after modeling", "assay_type": "functional, organism-based", "conditions": "dose 10-20 mg/kg, time 8-21 day"}, "[25]": {"test": "MRT(0 to t) in Sprague-Dawley rat at 50 mg/kg, po measured upto 4 hrs by UPLC-MS/MS analysis", "assay_type": "ADME, organism-based", "conditions": "in vivo"}, "[26]": {"test": "VRT(0 to infinity) in Sprague-Dawley rat at 50 mg/kg, iv measured upto 4 hrs by UPLC-MS/MS analysis", "assay_type": "ADME, organism-based", "conditions": "in vivo"}, "[27]": {"test": "Acute toxicity in Kunming female mouse assessed as Alanine aminotransferase (ALT) level at 180 mg/kg, ip measured after 14 days (reference value: 33.7 U/L)", "assay_type": "organism-based", "conditions": "in vivo, 336 h, time 14 day"}, "[28]": {"biological_target": "Transient receptor potential cation channel subfamily V member 1 (Mus musculus) (UniProt Q704Y3)", "sequence (Q704Y3 whole entry)": "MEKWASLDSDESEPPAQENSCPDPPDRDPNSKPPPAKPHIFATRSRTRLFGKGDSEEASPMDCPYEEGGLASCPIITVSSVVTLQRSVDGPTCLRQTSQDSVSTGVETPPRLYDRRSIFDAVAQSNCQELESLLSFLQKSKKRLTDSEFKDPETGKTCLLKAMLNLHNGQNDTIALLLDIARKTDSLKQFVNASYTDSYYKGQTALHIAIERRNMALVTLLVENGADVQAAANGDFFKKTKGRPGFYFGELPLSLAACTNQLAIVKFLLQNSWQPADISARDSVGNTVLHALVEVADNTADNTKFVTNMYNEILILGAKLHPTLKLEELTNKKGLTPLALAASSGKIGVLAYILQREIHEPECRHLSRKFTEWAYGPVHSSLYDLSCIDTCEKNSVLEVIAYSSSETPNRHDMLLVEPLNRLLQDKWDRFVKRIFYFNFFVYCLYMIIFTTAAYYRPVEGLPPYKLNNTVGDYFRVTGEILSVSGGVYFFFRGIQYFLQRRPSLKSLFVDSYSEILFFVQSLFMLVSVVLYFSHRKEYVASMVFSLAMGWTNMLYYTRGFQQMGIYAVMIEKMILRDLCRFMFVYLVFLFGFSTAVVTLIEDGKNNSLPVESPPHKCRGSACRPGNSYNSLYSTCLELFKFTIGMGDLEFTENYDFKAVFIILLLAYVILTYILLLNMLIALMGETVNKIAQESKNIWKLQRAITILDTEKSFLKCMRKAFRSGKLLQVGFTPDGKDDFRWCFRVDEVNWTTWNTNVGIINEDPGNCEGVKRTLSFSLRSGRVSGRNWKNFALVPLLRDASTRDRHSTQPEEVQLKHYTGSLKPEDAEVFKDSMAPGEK", "test": "Thermal stabilization of TRPV1 in mouse NIH3T3 cells assessed as reduction in TRPV1 degradation at 10 uM at 40 to 65 degreeC measured after 30 mins by CETSA", "assay_type": "cell-based"}, "[29]": {"test": "Acute toxicity in Kunming mouse assessed as organ lesions in liver at 180 mg/kg, ip measured after 14 days by H and E staining based assay", "assay_type": "organism-based", "conditions": "in vivo, 336 h, time 14 day"}, "[30]": {"test": "Acute toxicity in Kunming female mouse assessed as Lactate dehydrogenase (LDH) level at 180 mg/kg, ip measured after 14 days (reference value: 1952.7 U/L)", "assay_type": "organism-based", "conditions": "in vivo, 336 h, time 14 day"}, "[31]": {"test": "Acute toxicity in Kunming male mouse assessed as Creatine kinase (CK) level at 180 mg/kg, ip measured after 14 days (reference value: 710.6 U/L)", "assay_type": "organism-based", "conditions": "in vivo, 336 h, time 14 day"}, "[32]": {"test": "Acute toxicity in Kunming male mouse assessed as Albumin (ALB) level at 180 mg/kg, ip measured after 14 days (reference value: 32.6 g/L)", "assay_type": "organism-based", "conditions": "in vivo, 336 h, time 14 day"}, "[33]": {"test": "MRT(0 to infinity) in Sprague-Dawley rat at 50 mg/kg, po measured upto 4 hrs by UPLC-MS/MS analysis", "assay_type": "ADME, organism-based", "conditions": "in vivo"}, "[34]": {"test": "Acute toxicity in Kunming female mouse assessed as Urea level at 180 mg/kg, ip measured after 14 days (reference value: 5.74 mmol/L)", "assay_type": "organism-based", "conditions": "in vivo, 336 h, time 14 day"}, "[35]": {"tested_on": "Rattus norvegicus", "test": "Cz in Sprague-Dawley rat at 50 mg/kg, iv measured upto 4 hrs by UPLC-MS/MS analysis", "assay_type": "ADME, organism-based", "conditions": "in vivo"}, "[36]": {"tested_on": "NIH3T3", "test": "Inhibition of TGFbeta-induced JNK phosphorylation in mouse NIH3T3 cells at 1 to 10 uM by Western blot analysis", "assay_type": "functional, cell-based", "conditions": "dose 1-10 µM"}, "[37]": {"test": "Acute toxicity in Kunming female mouse assessed as Total bilirubin (T-Bil) level at 180 mg/kg, ip measured after 14 days (reference value: 10.79 micromol/L)", "assay_type": "organism-based", "conditions": "in vivo, 336 h, time 14 day"}, "[38]": {"tested_on": "Rattus norvegicus", "test": "Zeta in Sprague-Dawley rat at 50 mg/kg, po measured upto 4 hrs by UPLC-MS/MS analysis", "assay_type": "ADME, organism-based", "conditions": "in vivo"}},
  "note": "The source made the active and inactive calls. The calls are words filed in the database; no cut-off is given here.",
  "data": [
    {"smiles": "O=C(/C=C/c1ccc(O)c(O)c1)CCCCc1ccccc1", "values": [
      {"measurement": "VRT(t)", "setting": "[1]", "value": 0.569, "unit": "hr2"},
      {"measurement": "VRT", "setting": "[2]", "value": 1.28, "unit": "hr2"},
      {"measurement": "VRT(t)", "setting": "[3]", "value": 0.75, "unit": "hr2"},
      {"measurement": "Activity", "setting": "[4]", "value": "Active"},
      {"measurement": "Activity", "setting": "[5]", "value": 1.07},
      {"measurement": "Cmax", "setting": "[6]", "value": 1490, "unit": "ng/mL"},
      {"measurement": "Cz", "setting": "[7]", "value": 0.74, "unit": "µg/L"},
      {"measurement": "AUMC", "setting": "[8]", "value": 138.748, "unit": "ug/L.hr"},
      {"measurement": "inhibition", "setting": "[9]", "value": "Active"},
      {"measurement": "Vd", "setting": "[10]", "value": 7.17, "unit": "L/kg"},
      {"measurement": "CL", "setting": "[11]", "value": 197.26, "unit": "L/h/kg"},
      {"measurement": "Activity", "setting": "[12]", "value": 3.94, "unit": "µmol/L"},
      {"measurement": "Activity", "setting": "[13]", "value": 16.7, "unit": "µmol/L"},
      {"measurement": "AUMCt", "setting": "[14]", "value": 568.11, "unit": "ug/L.hr"},
      {"measurement": "AUC", "setting": "[15]", "value": 102.37, "unit": "ng·h/mL"},
      {"measurement": "viability at 24 h, 10 µM", "setting": "[16]", "value": 99.2, "unit": "%"},
      {"measurement": "half-life", "setting": "[17]", "value": 21, "unit": "min"},
      {"measurement": "MRT last at 4 h", "setting": "[18]", "value": 31.2, "unit": "min"},
      {"measurement": "Activity", "setting": "[19]", "value": "Dose-dependent-effect; Compound More Potent Than Nintedanib"},
      {"measurement": "Activity", "setting": "[20]", "value": "Active"},
      {"measurement": "AUMC", "setting": "[21]", "value": 2122.825, "unit": "ug/L.hr"},
      {"measurement": "Activity", "setting": "[22]", "value": "Active"},
      {"measurement": "Activity", "setting": "[23]", "value": 2486.8, "unit": "U/L"},
      {"measurement": "Activity", "setting": "[24]", "value": "Active"},
      {"measurement": "MRT last at 4 h", "setting": "[25]", "value": 73.2, "unit": "min"},
      {"measurement": "VRT", "setting": "[26]", "value": 0.779, "unit": "hr2"},
      {"measurement": "Activity", "setting": "[27]", "value": 40.1, "unit": "U/L"},
      {"measurement": "Activity", "setting": "[28]", "value": "Active"},
      {"measurement": "Activity", "setting": "[29]", "value": "Non-toxic"},
      {"measurement": "Activity", "setting": "[30]", "value": 2798.2, "unit": "U/L"},
      {"measurement": "Activity", "setting": "[31]", "value": 710.6, "unit": "U/L"},
      {"measurement": "Activity", "setting": "[32]", "value": 31.2, "unit": "g/L"},
      {"measurement": "MRT inf", "setting": "[33]", "value": 81, "unit": "min"},
      {"measurement": "Activity", "setting": "[34]", "value": 6.51, "unit": "mmol/L"},
      {"measurement": "Cz", "setting": "[35]", "value": 31.67, "unit": "µg/L"},
      {"measurement": "inhibition", "setting": "[36]", "value": "Active"},
      {"measurement": "Activity", "setting": "[37]", "value": 18.82, "unit": "µmol/L"},
      {"measurement": "Activity", "setting": "[38]", "value": 0.84}
    ]}
  ]
}
